The term IC50 denotes the concentration that gives 50% inhibition.

The results in this text go back to patent US20160237059A1, “HETEROCYCLIC SUBSTITUTED TRIFLUOROMETHYL PYRIMIDINONES AND THEIR USE” (BAYER PHARMA AKTIENGESELLSCHAFT, priority 2013, published 2016).

The structures appear in SMILES notation. Structures can show the parent of a compound that is named as a salt.

One assay has as its target T1, murine CCR2 (Mus musculus, UniProt P51683).
T1 construct: host or cells: U2OS β-arrestin cell line
Briefly: Functional β-arrestin recruiting test with human MCP-1 (B-2a). The format is cell-based. As to conditions: U2OS β-arrestin cell line transfected with murine CCR2; agonist human MCP-1 at EC50 (about 3 nM); in some cases means of several determinations. As to the method: The antagonistic action of test substances on CCR2 was determined in a β-arrestin test. The PathHunter β-arrestin GPCR test system (DiscoveRx Corporation, Ltd.) is a cell-based functional method for detecting binding of β-arrestin to an activated receptor. The molecular basis is a […] complementation measured by the enzymatic conversion of a chemiluminescent substrate. The test cell used was a U2OS β-arrestin cell line transfected with murine CCR2 (93-0543C3, DiscoveRx Corporation, Ltd.).
The test substances were dissolved in dimethyl sulphoxide (DMSO) at a concentration of 10 mM and serially diluted with DMSO in steps of 1:3.16 for a 10-point dose/activity analysis. According to the desired test concentrations, the substances were pre-diluted in Tyrode with 2 mM CaCl2 and 0.05% BSA.
The cells, cultivated in MEM Eagle (supplemented with 10% FCS, 50 U/ml of penicillin, 50 μg/ml of streptomycin, 250 μg/ml of hygromycin and 500 μg/ml of geniticin), were sown at 2000 cells/25 μl in 384 well, μCLEAR/black cell culture plates from Greiner (#781092) and incubated at 37° C. for 24 h. The sowing medium consisted of Opti-MEM (supplemented with 1% FCS, 50 U/ml of penicillin and 50 μg/ml of streptomycin). The cells were pre-incubated for 10 min with 10 μl of the test substances diluted in buffer, and 10 μl of agonist solution [human MCP-1 (PeproTech, #300-04) in Tyrode with 0.05% BSA) were then added. The human MCP-1 was employed at the concentration which corresponds to the EC50 which had been determined in a preliminary test (usually about 3 nM). After 90 min of incubation at 37° C., the solution was removed, and recruitment of β-arrestin to CCR2 was detected with the aid of the PathHunter detection reagent (93-001, DiscoveRx Corporation, Ltd.) according to the instructions of the manufacturer. Luminescence was measured after an incubation time of 60 min using a proprietary luminescence imaging measuring instrument. The molar concentration of the test substance which caused 50% inhibition of the MCP-1 effect (IC50) was determined using a 4-parameter logistic function (Hill function).
On the technique in general: Arrestin recruitment assays detect the binding of arrestin to an activated receptor.

The target of a further assay is T2, human CCR2 (Homo sapiens, UniProt P41597).
T2 construct: host or cells: Chem-1 cell line
T2 sequence (P41597 1-360 isoform P41597-2): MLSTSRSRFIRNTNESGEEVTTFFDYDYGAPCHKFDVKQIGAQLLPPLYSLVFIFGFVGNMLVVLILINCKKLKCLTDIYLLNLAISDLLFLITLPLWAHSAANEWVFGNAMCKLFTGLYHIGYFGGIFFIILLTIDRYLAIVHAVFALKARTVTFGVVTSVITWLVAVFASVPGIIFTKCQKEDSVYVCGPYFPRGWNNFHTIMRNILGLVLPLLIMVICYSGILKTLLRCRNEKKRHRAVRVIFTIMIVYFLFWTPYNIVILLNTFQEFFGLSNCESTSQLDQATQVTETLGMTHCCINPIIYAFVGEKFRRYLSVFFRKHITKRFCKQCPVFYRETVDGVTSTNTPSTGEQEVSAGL
Briefly: Functional Ca2+ release test (B-1). Format: cell-based. As to conditions: Chem-1 cell line transfected with human CCR2; 50% inhibition of the MCP-1 effect, MCP-1 at EC50 (about 5 nM); in some cases means of several determinations. An outline of the steps: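 Chem-1 cells expressing human CCR2, loaded with Fluo-4 for 60 min at 37° C, were preincubated 10 min with compound (10-point, 1:3.16 dilutions), then stimulated with MCP-1 at its predetermined EC50 (about 5 nM). Ca2+ release was monitored for 120 s. IC50 came from a 4-parameter Hill fit.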

T1 sequence (P51683 whole entry): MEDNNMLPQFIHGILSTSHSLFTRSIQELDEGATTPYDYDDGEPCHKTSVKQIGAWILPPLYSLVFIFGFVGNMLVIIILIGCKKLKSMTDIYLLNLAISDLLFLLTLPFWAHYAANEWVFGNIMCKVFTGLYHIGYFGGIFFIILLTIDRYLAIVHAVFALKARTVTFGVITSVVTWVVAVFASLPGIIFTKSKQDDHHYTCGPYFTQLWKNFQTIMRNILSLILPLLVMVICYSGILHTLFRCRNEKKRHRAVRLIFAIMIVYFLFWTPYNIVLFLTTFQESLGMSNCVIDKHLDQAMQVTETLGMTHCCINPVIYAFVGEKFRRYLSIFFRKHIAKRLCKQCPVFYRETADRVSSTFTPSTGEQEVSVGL

On to `O=c1[nH]c(-c2cccc(O)n2)nc(C(F)(F)F)c1Oc1ccc(Cl)c(C(F)(F)F)c1` [Example 30, 5-[4-chloro-3-(trifluoromethyl)phenoxy]-2-(6-hydroxypyridin-2-yl)-6-(trifluoromethyl)pyrimidin-4(3H)-one], for which the IC50 was 530 nM at murine CCR2 and 140 nM against human CCR2.

In the case of `O=c1[nH]c(-c2cccc(O)n2)nc(C(F)(F)F)c1Oc1ccc(Cl)c(Cl)c1` [Example 31, 5-(3,4-dichlorophenoxy)-2-(6-hydroxypyridin-2-yl)-6-(trifluoromethyl)pyrimidin-4(3H)-one], the IC50 on murine CCR2 was 1400 nM; on human CCR2, 150 nM.

`O=c1[nH]c(-c2cc(O)ccn2)nc(C(F)(F)F)c1Oc1ccc(Cl)c(Cl)c1` [Example 32, 5-(3,4-dichlorophenoxy)-2-(4-hydroxypyridin-2-yl)-6-(trifluoromethyl)pyrimidin-4(3H)-one]: the IC50 on murine CCR2 was found to be 1100 nM; against human CCR2 it was 51 nM.

Turning to `O=c1[nH]c(-c2cc(O)ccn2)nc(C(F)(F)F)c1Oc1ccc(Cl)c(C(F)(F)F)c1` [Example 33, 5-[4-chloro-3-(trifluoromethyl)phenoxy]-2-(4-hydroxypyridin-2-yl)-6-(trifluoromethyl)pyrimidin-4(3H)-one], the IC50 at murine CCR2 turned out to be 650 nM; against human CCR2, 46 nM.

`O=c1[nH]c(-c2ncccc2F)nc(C(F)(F)F)c1Cc1ccc(Cl)c(C(F)(F)F)c1` [Example 34, 5-[4-chloro-3-(trifluoromethyl)benzyl]-2-(3-fluoropyridin-2-yl)-6-(trifluoromethyl)pyrimidin4(3H)-one]: the results for the IC50 at murine CCR2 and against human CCR2 were 110 nM and 2.7 nM, respectively.

In the case of `O=c1[nH]c(-c2cccc(Cl)n2)nc(C(F)(F)F)c1Oc1ccc(Cl)c(C(F)(F)F)c1` [Example 36, 2-(6-chloropyridin-2-yl)-5-[4-chloro-3-(trifluoromethyl)phenoxy]-6-(trifluoromethyl)pyrimidin-4(3H)-one], the IC50 worked out at 140 nM at murine CCR2 and 6.2 nM against human CCR2.

For `Nc1cccc(-c2nc(C(F)(F)F)c(Oc3ccc(Cl)c(Cl)c3)c(=O)[nH]2)n1` [Example 43, 2-(6-aminopyridin-2-yl)-5-(3,4-dichlorophenoxy)-6-(trifluoromethyl)pyrimidin-4(3H)-one], the results for the IC50 on murine CCR2 and against human CCR2 were 220 nM and 6.6 nM, respectively.

For the molecule `Nc1oc(=O)sc1-c1nc(C(F)(F)F)c(Cc2ccc(Cl)c(Cl)c2)c(=O)[nH]1` [Example 46, 2-(5-Amino-2-oxo-1,3-oxathiol-4-yl)-5-(3,4-dichlorobenzyl)-6-(trifluoromethyl)pyrimidin-4(3H)-one], the figures for the IC50 on murine CCR2 and against human CCR2 were 230 nM and 59 nM, respectively.

Regarding `Nc1ncnn1-c1nc(C(F)(F)F)c(Oc2ccc(Cl)c(Cl)c2)c(=O)[nH]1` [Example 48, 2-(5-Amino-1H-1,2,4-triazol-1-yl)-5-(3,4-dichlorophenoxy)-6-(trifluoromethyl)pyrimidin-4(3H)-one], the figures for the IC50 on murine CCR2 and at human CCR2 were 30000 nM and 4.2 nM, respectively.

Turning to `O=c1[nH]c(-c2cc[nH]n2)nc(C(F)(F)F)c1Cc1ccc(Cl)c(Cl)c1` [Example 50, 5-(3,4-dichlorobenzyl)-2-(1H-pyrazol-3-yl)-6-(trifluoromethyl)pyrimidin-4(3H)-one], the IC50 is 4.7 nM on murine CCR2 and 0.2 nM on human CCR2.

For the molecule `Cc1cc(-c2nc(C(F)(F)F)c(Cc3ccc(Cl)c(Cl)c3)c(=O)[nH]2)nn1C` [Example 55, 5-(3,4-dichlorobenzyl)-2-(1,5-dimethyl-1H-pyrazol-3-yl)-6-(trifluoromethyl)pyrimidin-4(3H)-one], the IC50 at murine CCR2 was 110 nM; against human CCR2, 4.4 nM.

As for `Cn1nccc1-c1nc(C(F)(F)F)c(Oc2ccc(Cl)c(Cl)c2)c(=O)[nH]1` [Example 56, 5-(3,4-dichlorophenoxy)-2-(1-methyl-1H-pyrazol-5-yl)-6-(trifluoromethyl)pyrimidin-4(3H)-one], the IC50 at murine CCR2 is 900 nM; against human CCR2, 38 nM.

On to `Cc1cc(C)n(-c2nc(C(F)(F)F)c(Cc3ccc(Cl)c(Cl)c3)c(=O)[nH]2)n1` [Example 57, 5-(3,4-dichlorobenzyl)-2-(3,5-dimethyl-1H-pyrazol-1-yl)-6-(trifluoromethyl)pyrimidin-4(3H)-one], for which the results for the IC50 on murine CCR2 and on human CCR2 were 1300 nM and 83 nM, respectively.

On to `Nc1[nH]ncc1-c1nc(C(F)(F)F)c(Cc2ccc(Cl)c(Cl)c2)c(=O)[nH]1` [Example 60, 2-(5-amino-1H-pyrazol-4-yl)-5-(3,4-dichlorobenzyl)-6-(trifluoromethyl)pyrimidin-4(3H)-one], for which the results for the IC50 on murine CCR2 and on human CCR2 were 180 nM and 91 nM, respectively.

On to `Cn1ncc(-c2nc(C(F)(F)F)c(Cc3ccc(Cl)c(Cl)c3)c(=O)[nH]2)c1N` [Example 61, 2-(5-amino-1-methyl-1H-pyrazol-4-yl)-5-(3,4-dichlorobenzyl)-6-(trifluoromethyl)pyrimidin-4(3H)-one], for which the IC50 was determined as 220 nM on murine CCR2 and 36 nM on human CCR2.

`Nc1[nH]ncc1-c1nc(C(F)(F)F)c(Oc2ccc(Cl)c(Cl)c2)c(=O)[nH]1` [Example 62, 2-(5-amino-1H-pyrazol-4-yl)-5-(3,4-dichlorophenoxy)-6-(trifluoromethyl)pyrimidin-4(3H)-one trifluoroacetate]: the IC50 at murine CCR2 came out at 140 nM; on human CCR2, 110 nM.

Regarding `O=c1[nH]c(-c2cn[nH]c2)nc(C(F)(F)F)c1Cc1ccc(Cl)c(Cl)c1` [Example 63, 5-(3,4-dichlorobenzyl)-2-(1H-pyrazol-4-yl)-6-(trifluoromethyl)pyrimidin-4(3H)-one], the IC50 on murine CCR2 worked out at 100 nM; against human CCR2, 5.5 nM.

For the molecule `Nc1nc[nH]c1-c1nc(C(F)(F)F)c(Oc2ccc(Cl)c(Cl)c2)c(=O)[nH]1` [Example 64, 2-(4-amino-1H-imidazol-5-yl)-5-(3,4-dichlorophenoxy)-6-(trifluoromethyl)pyrimidin-4(3H)-one], the IC50 stood at 6500 nM on murine CCR2 and 320 nM against human CCR2.

In the case of `O=c1[nH]c(-c2cn[nH]c2)nc(C(F)(F)F)c1Oc1ccc(Cl)c(Cl)c1` [Example 66, 5-(3,4-dichlorophenoxy)-2-(1H-pyrazol-4-yl)-6-(trifluoromethyl)pyrimidin-4(3H)-one], the IC50 on murine CCR2 was 110 nM; at human CCR2, 4.4 nM.

`Cn1ncc(-c2nc(C(F)(F)F)c(Oc3ccc(Cl)c(C(F)(F)F)c3)c(=O)[nH]2)c1N` [Example 67, 2-(5-amino-1-methyl-1H-pyrazol-4-yl)-5-[4-chloro-3-(trifluoromethyl)phenoxy]-6-(trifluoromethyl)pyrimidin-4(3H)-one]: the IC50 on murine CCR2 is 150 nM; on human CCR2, 8.3 nM.

As for `Cn1ncc(-c2nc(C(F)(F)F)c(Oc3ccc(Cl)c(Cl)c3)c(=O)[nH]2)c1N` [Example 68, 2-(5-amino-1-methyl-1H-pyrazol-4-yl)-5-(3,4-dichlorophenoxy)-6-(trifluoromethyl)pyrimidin-4(3H)-on], the IC50 on murine CCR2 was 310 nM; at human CCR2, 27 nM.

For `Nc1nc[nH]c1-c1nc(C(F)(F)F)c(Oc2ccc(Cl)c(C(F)(F)F)c2)c(=O)[nH]1` [Example 69, 2-(4-amino-1H-imidazol-5-yl)-5-[4-chloro-3-(trifluoromethyl)phenoxy]-6-(trifluoromethyl)pyrimidin-4(3H)-one], the figures for the IC50 on murine CCR2 and against human CCR2 were 1100 nM and 130 nM, respectively.

Regarding `O=c1[nH]c(-c2cc[nH]n2)nc(C(F)(F)F)c1Cc1ccc(Cl)c(C(F)(F)F)c1` [Example 72, 5-[4-chloro-3-(trifluoromethyl)benzyl]-2-(1H-pyrazol-3-yl)-6-(trifluoromethyl)pyrimidin-4(3H)-one], the IC50 at murine CCR2 was determined as 19 nM; against human CCR2, 0.7 nM.
